Results: ChEMBL document CHEMBL1629605, “Effect of a single dose of ritonavir on the pharmacokinetic behavior of elvucitabine, a nucleoside reverse transcriptase inhibitor, administered in healthy volunteers” (Antimicrob Agents Chemother, 2009)

Legend:
[1] = Half life in human at 20 mg administered under fasting condition; format: ADME, organism-based; conditions: in vivo
[2] = Apparent oral clearance in human at 20 mg administered under fasting condition; format: ADME, organism-based; conditions: in vivo
Homo sapiens [3] = assay: Time prior to start absorption at first absorption site in human at 20 mg administered under fasting condition presence of 300 mg of ritonavir; format: ADME, organism-based; conditions: in vivo
[4] = Cmax in human at 20 mg administered under fasting condition; conditions: in vivo
[5] = Clearance in human at 20 mg administered under fasting condition in presence of 300 mg of ritonavir; format: ADME, organism-based; conditions: in vivo
[6] = Terminal half life in human at 20 mg administered under fasting condition; format: ADME, organism-based; conditions: in vivo, read-out: beta t1/2 (converted)
clinical = conditions: human, in vivo
Description: Cmax in human at 20 mg administered under fasting condition in presence of 300 mg of ritonavir

[7] = AUC (0 to t) in human at 20 mg administered under fasting condition; format: ADME, organism-based; conditions: plasma
[8] = Terminal half life in human at 20 mg administered under fasting condition presence of 300 mg of ritonavir; format: ADME, organism-based; conditions: in vivo, read-out: beta t1/2 (converted)
Homo sapiens [9] = assay: Time prior to start absorption at first absorption site in human at 20 mg administered under fasting condition; format: ADME, organism-based; conditions: in vivo
Homo sapiens [10] = assay: Distributional clearance with respect to the bioavailability in human at 20 mg administered under fasting condition presence of 300 mg of ritonavir; format: ADME, organism-based; conditions: in vivo
[11] = AUC (0 to 24 hrs) in human at 20 mg administered under fasting condition in presence of 300 mg of ritonavir; format: ADME, organism-based; parameters: time < 24 hr, dose 20 mg; conditions: plasma
[12] = AUC (0 to t) in human at 20 mg administered under fasting condition in presence of 300 mg of ritonavir; format: ADME, organism-based; conditions: plasma
[13] = Tmax in human at 20 mg administered under fasting condition; format: ADME, organism-based; conditions: in vivo
[14] = Clearance in human at 20 mg administered under fasting condition; format: ADME, organism-based; conditions: in vivo
[15] = Half life in human at 20 mg administered under fasting condition in presence of 300 mg of ritonavir; format: ADME, organism-based; conditions: in vivo
Homo sapiens [16] = assay: Time prior to start absorption at second absorption site in human at 20 mg administered under fasting condition; format: ADME, organism-based; conditions: in vivo
Homo sapiens [17] = assay: Distributional clearance with respect to the bioavailability in human at 20 mg administered under fasting condition; format: ADME, organism-based; conditions: in vivo
[18] = Tmax in human at 20 mg administered under fasting condition in presence of 300 mg of ritonavir; format: ADME, organism-based; conditions: in vivo
Homo sapiens [19] = assay: Absorption rate constant at first absorption site in human at 20 mg administered under fasting condition; format: ADME, organism-based; conditions: in vivo
[20] = AUC (0 to 24 hrs) in human at 20 mg administered under fasting condition; format: ADME, organism-based; parameters: time < 24 hr, dose 20 mg; conditions: plasma
[21] = AUC (0 to infinity) in human at 20 mg administered under fasting condition; format: ADME, organism-based; parameters: dose 20 mg, time infinity; conditions: plasma
[22] = Apparent oral clearance in human at 20 mg administered under fasting condition presence of 300 mg of ritonavir; format: ADME, organism-based; conditions: in vivo
Homo sapiens [23] = assay: Absorption rate constant at first absorption site in human at 20 mg administered under fasting condition presence of 300 mg of ritonavir; format: ADME, organism-based; conditions: in vivo
Homo sapiens [24] = assay: Peripheral volume of distribution with respect to the bioavailability in human at 20 mg administered under fasting condition presence of 300 mg of ritonavir; format: ADME, organism-based; conditions: in vivo
[25] = Volume of distribution at steady state with respect to the bioavailability in human at 20 mg administered under fasting condition presence of 300 mg of ritonavir; format: ADME, organism-based; conditions: in vivo, read-out: Vss/F
Homo sapiens [26] = assay: Absorption rate constant at second absorption site in human at 20 mg administered under fasting condition; format: ADME, organism-based; conditions: in vivo
Homo sapiens [27] = assay: Central volume of distribution with respect to the bioavailability in human at 20 mg administered under fasting condition presence of 300 mg of ritonavir; format: ADME, organism-based; conditions: in vivo
Homo sapiens [28] = assay: Peripheral volume of distribution with respect to the bioavailability in human at 20 mg administered under fasting condition; format: ADME, organism-based; conditions: in vivo
Homo sapiens [29] = assay: Time prior to start absorption at second absorption site in human at 20 mg administered under fasting condition presence of 300 mg of ritonavir; format: ADME, organism-based; conditions: in vivo
[30] = Central volume of distribution with respect to the bioavailability in human at 20 mg administered under fasting condition; format: ADME, organism-based; conditions: in vivo, read-out: Vc/F
[31] = AUC (0 to infinity) in human at 20 mg administered under fasting condition in presence of 300 mg of ritonavir; format: ADME, organism-based; parameters: dose 20 mg, time infinity; conditions: plasma
Homo sapiens [32] = assay: Absorption rate constant at second absorption site in human at 20 mg administered under fasting condition presence of 300 mg of ritonavir; format: ADME, organism-based; conditions: in vivo
[33] = Volume of distribution at steady state with respect to the bioavailability in human at 20 mg administered under fasting condition; format: ADME, organism-based; conditions: in vivo, read-out: Vss/F

For `Nc1nc(=O)n([C@@H]2C=C[C@H](CO)O2)cc1F` [ELVUCITABINE], the half-life [1] was 59.1 h, the CL/F [2] was 297 mL/min and the Time (Homo sapiens [3]) was 2.96 h. It also gave a Cmax [4] of 0.136 µg/mL, a clearance [5] of 467 mL/min and a half-life [6] of 58.6 h. It also gave a Cmax (clinical) of 0.102 µg/mL, an AUC(0-t) [7] of 1.03 µg·h/mL and a half-life [8] of 60.2 h. The Time (Homo sapiens [9]) was 1.6 h, the CLd/F (Homo sapiens [10]) was 19.3 L/h and the AUC(0-t) at 24 h [11] was 0.568 µg·h/mL. It also gave an AUC(0-t) [12] of 0.79 µg·h/mL, a Tmax [13] of 3.78 h and a clearance [14] of 293 mL/min. It also gave a half-life [15] of 54.2 h, a Time (Homo sapiens [16]) of 2.3 h and a CLd/F (Homo sapiens [17]) of 16.3 L/h. For the same compound, the Tmax [18] was 5.12 h, the ka (Homo sapiens [19]) was 0.183 h⁻¹ and the AUC(0-t) at 24 h [20] was 0.732 µg·h/mL. It also gave an AUC(0-inf) [21] of 1.24 µg·h/mL, a CL/F [22] of 487 mL/min and a ka (Homo sapiens [23]) of 0.127 h⁻¹. The Vp/F (Homo sapiens [24]) was 897 L, the Vd/F [25] was 921 L and the ka (Homo sapiens [26]) was 0.459 h⁻¹. It also gave a Vc/F (Homo sapiens [27]) of 24.8 L, a Vp/F (Homo sapiens [28]) of 703 L and a Time (Homo sapiens [29]) of 3.54 h. It also gave a Vd/F [30] of 26.1 L, an AUC(0-inf) [31] of 0.979 µg·h/mL and a ka (Homo sapiens [32]) of 0.483 h⁻¹. The Vd/F [33] was 729 L.
